Data published in patent publication US9040712B2, “Thiadiazole analogs thereof and methods for treating SMN-deficiency-related-conditions” (NOVARTIS AG, priority 2013, dated 2015).
Structures can show the parent of a compound that is named as a salt.

These molecules were tested on SMN protein (assay: cellular SMN ELISA (SMN protein elevation)). Conditions: myoblast cell line derived from SMNdelta7 mouse model; 24 hours compound treatment; concentration range 100 pM-10 uM.
Assay type: cell-based
Method: A cellular SMN ELISA was used to measure the effects of low molecular weight compounds on SMN protein elevation. Cells from a myoblast cell line derived from the SMNdelta7 mouse model (kind gift from Steve Burden, NYU) were seeded into a 384-well plate at a density of 3000 cells/well and treated with compounds for 24 hours. ELISA capture plates were prepared by coating 384-well plates (Immulon 4HBX) with 0.5 ug/mL of anti-SMN mAb (BD Science, Catalog number 610647) at 4° C. overnight. The plates were washed 5 times with 110 uL of PBS-Tween (0.05% Tween-20, PBST), blocked with 100 uL of 1% BSA in PBST for 2 hours and washed (5 times) with 100 uL of PBST. After 24 hours of compound treatment cells were lysed in a modified RIPA-buffer, on ice for 1 hour. 20 uL of lysate and 20 uL of 1% BSA were then added to the ELISA capture plates and incubated at 4° C. overnight. Plates were washed (5 times) with PBST and then incubated with 1:100 dilution of primary rabbit anti-SMN polyclonal antibody (Santa cruz, Catalog number SC-15320) at room temperature for 1 hour and subsequently washed (5 times) with 110 uL of PBST. This was followed by addition of 1:100 Goat anti-Rabbit IgG-HRP linked (Cell Signaling, Catalog number 7074) secondary antibody for 1 hour. Plates were then washed with PBST and incubated with 40 uL TMB substrate (Cell Signaling, Catalog number 7004L) at room temperature for 1-10 minutes with shaking. The reaction was stopped by addition of 40 uL of stop solution (Cell signaling, Catalog number 7002L) and absorption was measured at 450 nm. Data was reported as fold activation over DMSO control and EC50. ELISA assay condition: compound concentration range 100 pM-10 uM.

Compound	EC50 [nM]	SMN Activity Fold (fold activation over DMSO control) [fold]
COc1ccc2c(c1)CCN(c1nnc(N(C)C3CC(C)(C)NC(C)(C)C3)s1)C2=O [Example 64, 6-methoxy-2-(5-(methyl(2,2,6,6-tetramethylpiperidin-4-yl)amino)-1,3,4-thiadiazol-2-yl)-3,4-dihydroisoquinolin-1(2H)-one]	1620	2.51
Oc1cc(-c2cn[nH]c2)cc(F)c1-c1nnc(N2C[C@H]3CNC[C@H]3C2)s1 [Example 96, 3-fluoro-2-(5-((3aR,6aS)-hexahydropyrrolo[3,4-c]pyrrol-2(1H)-yl)-1,3,4-thiadiazol-2-yl)-5-(1H-pyrazol-4-yl)phenol•Di-hydrochloride salt]	9	2.85
CN1C[C@@H]2CN(c3nnc(-c4ccc(-c5cn[nH]c5)cc4Cl)s3)C[C@@H]2C1 [Example 80, 2-(2-chloro-4-(1H-pyrazol-4-yl)phenyl)-5-((3aR,6aS)-5-methylhexahydropyrrolo[3,4-c]pyrrol-2(1H)-yl)-1,3,4-thiadiazole]	149	2.70
Cn1cc(-c2ccc(-c3nnc(OC4CC(C)(C)NC(C)(C)C4)s3)c(Cl)c2)cn1 [Example 43, 2-(2-chloro-4-(1-methyl-1H-pyrazol-4-yl)phenyl)-5-((2,2,6,6-tetramethylpiperidin-4-yl)oxy)-1,3,4-thiadiazole]	446	2.28
CN(c1nnc(-c2cc3ccccc3nc2O)s1)C1CC(C)(C)NC(C)(C)C1 [Example 23, 3-(5-(Methyl(2,2,6,6-tetramethylpiperidin-4-yl)amino)-1,3,4-thiadiazol-2-yl)quinolin-2-ol]	231	2.66
COc1cc(-c2cn[nH]c2)cc(F)c1-c1nnc(N(C)C2CC(C)(C)NC(C)(C)C2)s1 [Example 61, 5-(2-fluoro-6-methoxy-4-(1H-pyrazol-4-yl)phenyl)-N-methyl-N-(2,2,6,6-tetramethylpiperidin-4-yl)-1,3,4-thiadiazol-2-amine]	95	2.36
CN(c1nnc(-c2ccc(-c3cnn4c3CCCC4)cc2Cl)s1)C1CC(C)(C)NC(C)(C)C1 [Example 41, 5-(2-chloro-4-(4,5,6,7-tetrahydropyrazolo[1,5-a]pyridin-3-yl)phenyl)-N-methyl-N-(2,2,6,6-tetramethylpiperidin-4-yl)-1,3,4-thiadiazol-2-amine]	507	2.44
COc1c(-c2nnc(N(C)C3CC(C)(C)NC(C)(C)C3)s2)c(=O)n(C)c2ccccc12 [Example 101, 4-methoxy-1-methyl-3-(5-(methyl(2,2,6,6-tetramethylpiperidin-4-yl)amino)-1,3,4-thiadiazol-2-yl)quinolin-2(1H)-one]	742	2.51
CN1CCC2(CCCN(c3nnc(-c4ccc(-c5cn[nH]c5)cc4Cl)s3)C2)C1 (stereo not drawn) [Example 83, 2-(2-chloro-4-(1H-pyrazol-4-yl)phenyl)-5-(2-methyl-2,7-diazaspiro[4.5]decan-7-yl)-1,3,4-thiadiazole]	3280	2.59
CN(c1nnc(-c2ccc(-c3cn[nH]c3)cc2O)s1)C1CC(C)(C)NC(C)(C)C1 [Example 93, 2-(5-(methyl(2,2,6,6-tetramethylpiperidin-4-yl)amino)-1,3,4-thiadiazol-2-yl)-5-(1H-pyrazol-4-yl)phenol]	404	2.47
CN(c1nnc(-c2ccc(-n3cncn3)cc2Cl)s1)C1CC(C)(C)NC(C)(C)C1 [Example 68, 5-(2-chloro-4-(1H-1,2,4-triazol-1-yl)phenyl)-N-methyl-N-(2,2,6,6-tetramethylpiperidin-4-yl)-1,3,4-thiadiazol-2-amine]	79	2.64
COc1cc2ncccc2cc1-c1nnc(N(C)C2CC(C)(C)NC(C)(C)C2)s1 [Example 31, 5-(7-Methoxyquinolin-6-yl)-N-methyl-N-(2,2,6,6-tetramethylpiperidin-4-yl)-1,3,4-thiadiazol-2-amine]	113	2.43
Clc1cc(-c2cn[nH]c2)ccc1-c1nnc(N2C[C@H]3CNC[C@H]3C2)s1 [Example 105, 2-(2-chloro-4-(1H-pyrazol-4-yl)phenyl)-5-((3aR,6aS)-hexahydropyrrolo[3,4-c]pyrrol-2(1H)-yl)-1,3,4-thiadiazole Hydrochloride Salt]	181	2.21
CN(c1nnc(-c2ccc(-c3ccc(O)nc3)cc2O)s1)C1CC(C)(C)NC(C)(C)C1 [Example 19, 5-(3-Hydroxy-4-(5-(methyl(2,2,6,6-tetramethyl-piperidin-4-yl)amino)-1,3,4-thiadiazol-2-yl)phenyl)pyridin-2-ol]	51	2.85
COc1cc(-c2cn[nH]c2)ccc1-c1nnc(N(C)C2CC(C)(C)NC(C)(C)C2)s1 [Example 7, 5-(2-Methoxy-4-(1H-pyrazol-4-yl)phenyl)-N-methyl-N-(2,2,6,6-tetramethylpiperidin-4-yl)-1,3,4-thiadiazol-2-amine]	38	2.86
COc1cc(-c2ccn(C)c(=O)c2)ccc1-c1nnc(N(C)C2CC(C)(C)NC(C)(C)C2)s1 [Example 8, 4-(3-Methoxy-4-(5-(methyl(2,2,6,6-tetramethyl-piperidin-4-yl)amino)-1,3,4-thiadiazol-2-yl)phenyl)-1-methylpyridin-2(1H)-one]	134	3.20
COc1nc2ccccc2cc1-c1nnc(N(C)C2CC(C)(C)NC(C)(C)C2)s1 [Example 3, 5-(2-Methoxyquinolin-3-yl)-N-methyl-N-(2,2,6,6-tetramethylpiperidin-4-yl)-1,3,4-thiadiazol-2-amine]	337	2.67
CN(c1nnc(-c2c(O)cc(-c3cn[nH]c3)cc2Cl)s1)C1CC(C)(C)NC(C)(C)C1 [Example 97, 3-chloro-2-(5-(methyl(2,2,6,6-tetramethylpiperidin-4-yl)amino)-1,3,4-thiadiazol-2-yl)-5-(1H-pyrazol-4-yl)phenol]		2.45
CN(c1nnc(-c2ccc(-n3nccn3)cc2Cl)s1)C1CC(C)(C)NC(C)(C)C1 [Example 67, 5-(2-chloro-4-(2H-1,2,3-triazol-2-yl)phenyl)-N-methyl-N-(2,2,6,6-tetramethylpiperidin-4-yl)-1,3,4-thiadiazol-2-amine]	159	2.45
CN(c1nnc(-c2ccc(-c3ccc(N)nc3)cc2F)s1)C1CC(C)(C)NC(C)(C)C1 [Example 45, 5-(4-(6-aminopyridin-3-yl)-2-fluorophenyl)-N-methyl-N-(2,2,6,6-tetramethylpiperidin-4-yl)-1,3,4-thiadiazol-2-amine]	163	2.26
